Values of other authors, collected in US7772228B2, “Method for treatment of bacterial infections with once or twice-weekly administered rifalazil” (priority 1998, dated 2010).

Tests used:
[1] = test system: M. tuberculosis strain Erdman; details: cited from earlier work; for cell counts in lungs compared to late controls: four weeks treatment
[2] = test system: Helicobacter pylori; set-up: unit of the concentration uncertain; details: time-kill, broth medium, 0.31 (unit uncertain); cited from earlier work

Row | SMILES | cell counts in lungs compared to late controls [1] | further results
1 | NC(=O)c1cnccn1 [PZA, pyrazinamide] |  | CFUs in the spleen ([1]; rifalazil 20 mg/kg, PZA 150 mg/kg, four weeks): did not significantly reduce CFUs compared to controls
2 | C[C@H]1COc2c(N3CCN(C)CC3)c(F)cc3c(=O)c(C(=O)O)cn1c23 [LEV] | reduced cell counts in lungs | 
3 | CC[C@@H](CO)NCCN[C@@H](CC)CO [EMB, ethambutol] | reduced cell counts in lungs | 
4 | CC1(C)S[C@@H]2[C@H](NC(=O)[C@H](N)c3ccc(O)cc3)C(=O)N2[C@H]1C(=O)O [amoxicillin, reference compound] |  | decrease in CFU/mL after 24 hours [2]: 1 log
